In ChEMBL document CHEMBL5154649, “Design, synthesis, and characterization of novel aminoalcohol quinolines with strong in vitro antimalarial activity” (Eur J Med Chem, 2022):

tested on: Plasmodium falciparum; assay: Antiplasmodial activity against CQ-resistant Plasmodium falciparum W2 assessed as inhibition of parasite growth measured after 48 hrs by SYBR Green 1 dye based fluorescence assay; assay type: functional, organism-based; details: W2, 48 h

Structure (SMILES)	IC50
CC(C)(CO)NC[C@H](O)c1cc(C(F)(F)F)nc2c(C(F)(F)F)cccc12	31.5 nM
NC[C@@H](O)c1cc(C(F)(F)F)nc2c(C(F)(F)F)cccc12	1460 nM
O[C@H](CN1CCN(C(c2ccccc2)c2ccccc2)CC1)c1cc(C(F)(F)F)nc2c(C(F)(F)F)cccc12	36.7 nM
COC[C@H](C)NC[C@@H](O)c1cc(C(F)(F)F)nc2c(C(F)(F)F)cccc12	57.2 nM
O[C@@H](CN1CCN(C(c2ccccc2)c2ccccc2)CC1)c1cc(C(F)(F)F)nc2c(C(F)(F)F)cccc12	29.3 nM
OC[C@@H](NC[C@H](O)c1cc(C(F)(F)F)nc2c(C(F)(F)F)cccc12)c1ccccc1	15.9 nM
COC[C@H](C)NC[C@H](O)c1cc(C(F)(F)F)nc2c(C(F)(F)F)cccc12	5.1 nM
O[C@@H](CN1CCN(C[C@H](O)c2cc(C(F)(F)F)nc3c(C(F)(F)F)cccc23)CC1)c1cc(C(F)(F)F)nc2c(C(F)(F)F)cccc12	> 1000 nM
O[C@H](CNCCCCCCCCCCCCNC[C@@H](O)c1cc(C(F)(F)F)nc2c(C(F)(F)F)cccc12)c1cc(C(F)(F)F)nc2c(C(F)(F)F)cccc12	837 nM
C[C@H](CO)NC[C@@H](O)c1cc(C(F)(F)F)nc2c(C(F)(F)F)cccc12 (single isomer, unassigned)	10 nM

tested on: Plasmodium falciparum; assay: Selectivity index, ratio of IC50 for antiplasmodial activity against CQ-susceptible Plasmodium falciparum 3D7 to IC50 for antiplasmodial activity against CQ-resistant Plasmodium falciparum W2 by SYBR Green 1 dye based fluorescence assay; assay type: functional; details: not given

Structure (SMILES)	Ratio IC50
CC(C)(CO)NC[C@H](O)c1cc(C(F)(F)F)nc2c(C(F)(F)F)cccc12	3.15
O[C@H](CN1CCN(C(c2ccccc2)c2ccccc2)CC1)c1cc(C(F)(F)F)nc2c(C(F)(F)F)cccc12	1.1
COC[C@H](C)NC[C@@H](O)c1cc(C(F)(F)F)nc2c(C(F)(F)F)cccc12	0.2
O[C@@H](CN1CCN(C(c2ccccc2)c2ccccc2)CC1)c1cc(C(F)(F)F)nc2c(C(F)(F)F)cccc12	1.8
OC[C@@H](NC[C@H](O)c1cc(C(F)(F)F)nc2c(C(F)(F)F)cccc12)c1ccccc1	6.5
COC[C@H](C)NC[C@H](O)c1cc(C(F)(F)F)nc2c(C(F)(F)F)cccc12	2.8
O[C@H](CNCCCCCCCCCCCCNC[C@@H](O)c1cc(C(F)(F)F)nc2c(C(F)(F)F)cccc12)c1cc(C(F)(F)F)nc2c(C(F)(F)F)cccc12	0.3
C[C@H](CO)NC[C@@H](O)c1cc(C(F)(F)F)nc2c(C(F)(F)F)cccc12 (single isomer, unassigned)	6.85

tested on: not listed separately; assay: Cytotoxicity against Chinese hamster CHO cells assessed as reduction in cell viability incubated for 24 hrs by MTT assay; assay type: toxicity, cell-based, Cricetulus griseus; details: not given

Structure (SMILES)	IC50 at 24 h
COc1cccc2c1C(=O)c1c(O)c3c(c(O)c1C2=O)C[C@@](O)(C(=O)CO)C[C@@H]3O[C@H]1C[C@H](N)[C@H](O)[C@H](C)O1 [DOXORUBICIN]	3600 nM

tested on: not listed separately; assay: Cytotoxicity against human THP-1 cells assessed as reduction in cell viability incubated for 72 hrs by MTT assay; assay type: toxicity, cell-based; details: not given

Structure (SMILES)	IC50 at 72 h
COc1cccc2c1C(=O)c1c(O)c3c(c(O)c1C2=O)C[C@@](O)(C(=O)CO)C[C@@H]3O[C@H]1C[C@H](N)[C@H](O)[C@H](C)O1 [DOXORUBICIN]	20 nM

tested on: Plasmodium falciparum; assay: Antiplasmodial activity against CQ-susceptible Plasmodium falciparum 3D7 assessed as inhibition of parasite growth measured after 48 hrs by SYBR Green 1 dye based fluorescence assay; assay type: functional, organism-based; details: 3D7, 48 h

Structure (SMILES)	IC50
O[C@H](CN1CCNCC1)c1cc(C(F)(F)F)nc2c(C(F)(F)F)cccc12	> 1000 nM
OCCNC[C@@H](O)c1cc(C(F)(F)F)nc2c(C(F)(F)F)cccc12	> 1000 nM
O[C@@H](CN1CCN(Cc2cccc3ccccc23)CC1)c1cc(C(F)(F)F)nc2c(C(F)(F)F)cccc12	> 1000 nM
OCCCC(CCCO)(CCCO)NC[C@@H](O)c1cc(C(F)(F)F)nc2c(C(F)(F)F)cccc12	> 1000 nM
OCCCC(CCCO)(CCCO)NC[C@H](O)c1cc(C(F)(F)F)nc2c(C(F)(F)F)cccc12	> 1000 nM
O[C@H](CN1CCN(CCN2CCN(C[C@@H](O)c3cc(C(F)(F)F)nc4c(C(F)(F)F)cccc34)CC2)CC1)c1cc(C(F)(F)F)nc2c(C(F)(F)F)cccc12	726 nM
CC(C)(CO)NC[C@H](O)c1cc(C(F)(F)F)nc2c(C(F)(F)F)cccc12	99.3 nM
OCCN1CCN(C[C@@H](O)c2cc(C(F)(F)F)nc3c(C(F)(F)F)cccc23)CC1	> 1000 nM
O[C@H](CN1CCN(C(c2ccccc2)c2ccccc2)CC1)c1cc(C(F)(F)F)nc2c(C(F)(F)F)cccc12	39 nM
C[C@@H](CO)NC[C@@H](O)c1cc(C(F)(F)F)nc2c(C(F)(F)F)cccc12	166 nM
OCCN1CCN(C[C@H](O)c2cc(C(F)(F)F)nc3c(C(F)(F)F)cccc23)CC1	> 1000 nM
COC[C@H](C)NC[C@@H](O)c1cc(C(F)(F)F)nc2c(C(F)(F)F)cccc12	11.7 nM
O[C@@H](CN1CCN(C(c2ccccc2)c2ccccc2)CC1)c1cc(C(F)(F)F)nc2c(C(F)(F)F)cccc12	53.6 nM
OC[C@@H](NC[C@H](O)c1cc(C(F)(F)F)nc2c(C(F)(F)F)cccc12)c1ccccc1	104 nM
COC[C@H](C)NC[C@H](O)c1cc(C(F)(F)F)nc2c(C(F)(F)F)cccc12	14.4 nM
O[C@@H](CN1CCN(C[C@H](O)c2cc(C(F)(F)F)nc3c(C(F)(F)F)cccc23)CC1)c1cc(C(F)(F)F)nc2c(C(F)(F)F)cccc12	> 1000 nM
O[C@H](CNCCCCCCCCCCCCNC[C@@H](O)c1cc(C(F)(F)F)nc2c(C(F)(F)F)cccc12)c1cc(C(F)(F)F)nc2c(C(F)(F)F)cccc12	249 nM
O[C@@H](CN1CCNCC1)c1cc(C(F)(F)F)nc2c(C(F)(F)F)cccc12	> 1000 nM
O[C@H](CN1CCN(Cc2cccc3ccccc23)CC1)c1cc(C(F)(F)F)nc2c(C(F)(F)F)cccc12	> 1000 nM
OCCNC[C@H](O)c1cc(C(F)(F)F)nc2c(C(F)(F)F)cccc12	> 1000 nM
C[C@H](CO)NC[C@@H](O)c1cc(C(F)(F)F)nc2c(C(F)(F)F)cccc12 (single isomer, unassigned)	68.5 nM
